The text below walks through data of ChEMBL document CHEMBL1144829, “2-Arylbenzoxazoles as novel cholesteryl ester transfer protein inhibitors: optimization via array synthesis” (Bioorg Med Chem Lett, 2008).

Test [1] concerns the target T1, Cholesteryl ester transfer protein (Homo sapiens, UniProt P11597).
T1 sequence (P11597 whole entry): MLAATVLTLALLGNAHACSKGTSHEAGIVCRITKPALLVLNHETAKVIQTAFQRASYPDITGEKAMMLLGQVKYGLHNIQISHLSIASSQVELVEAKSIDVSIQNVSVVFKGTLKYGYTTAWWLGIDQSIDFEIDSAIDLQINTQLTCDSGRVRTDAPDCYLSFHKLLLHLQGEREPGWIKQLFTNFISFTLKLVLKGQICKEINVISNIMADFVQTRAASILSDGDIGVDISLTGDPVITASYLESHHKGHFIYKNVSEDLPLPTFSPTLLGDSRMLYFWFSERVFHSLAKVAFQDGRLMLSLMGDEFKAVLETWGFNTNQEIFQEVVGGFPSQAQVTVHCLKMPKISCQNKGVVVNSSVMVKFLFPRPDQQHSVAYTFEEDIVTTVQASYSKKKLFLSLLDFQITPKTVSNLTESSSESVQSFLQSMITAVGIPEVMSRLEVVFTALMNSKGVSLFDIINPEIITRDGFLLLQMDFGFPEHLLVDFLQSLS
Kind of test: Inhibition of human CETP by scintillation proximity assay. For orientation: In a scintillation proximity assay essentially only radioactivity close to the scintillant gives light.

The target in test [2] is T1, Cholesteryl ester transfer protein. Kind of test: Inhibition of CETP in human whole plasma.

A word on the IC50: it is the concentration that gives 50% inhibition. Higher therefore signals weaker potency in that assay. Take `COC(=O)c1ccccc1OCC(=O)Nc1ccc(-c2nc3cc(C)cc(C)c3o2)cc1`: in test [1], the IC50 was 0.22 µM.

In test [1], `COc1cccc(OCC(=O)Nc2ccc(-c3nc4cc(C)cc(C)c4o3)cc2)c1` gave an IC50 above 10 µM. As to `CCS(=O)(=O)c1ccc2oc(-c3ccc(NC(=O)COc4ccccc4C)cc3)nc2c1`, in test [1], the IC50 was found to be 9.3 µM. `Cc1cc(C)c2oc(-c3ccc(NC(=O)COc4ccc(OC(F)(F)F)cc4)cc3)nc2c1`: the IC50 in test [1] is above 10 µM.

For `Cc1ccccc1OCC(=O)Nc1ccc(-c2nc3cc(Cl)cc(Br)c3o2)cc1`, the values for the IC50 in test [1] and in test [2] were 0.097 µM and 26 µM, respectively. The molecule `Cc1cc(C)c2oc(-c3ccc(NC(=O)COc4cc(Cl)ccc4Cl)cc3)nc2c1` yielded an IC50 in test [1] above 10 µM. In the case of `Cc1cc(C)c2oc(-c3ccc(NC(=O)COc4ccc(Br)cc4C)cc3)nc2c1`, the half-maximal inhibitory concentration (IC50) in test [1] worked out at 0.031 µM; in test [2], 3.2 µM.

As to `Cc1ccc(C)c(OCC(=O)Nc2ccc(-c3nc4cc(C)cc(C)c4o3)cc2)c1`, the IC50 in test [1] is above 10 µM. Regarding `Cc1ccccc1OCC(=O)Nc1ccc(-c2nc3cc(CO)ccc3o2)cc1`, the values for the IC50 in test [1] and in test [2] were 1.3 µM and 27 µM, respectively. With `Cc1ccccc1OCC(=O)Nc1ccc(-c2nc3c(C)cccc3o2)cc1`, in test [1], the IC50 was above 32 µM. With `COc1ccc(OCC(=O)Nc2ccc(-c3nc4cc(C)cc(C)c4o3)cc2)cc1`, in test [1], the IC50 was above 10 µM. Same read-out and setting: the figure for `Cc1cc(C)c2oc(-c3ccc(NC(=O)COc4ccccc4C(C)C)cc3)nc2c1` is above 10 µM.

As to `CC(=O)c1cc(C)cc2nc(-c3ccc(NC(=O)COc4ccccc4C)cc3)oc12`, the IC50 in test [1] amounted to 0.24 µM; in test [2], 27 µM. Regarding `Cc1ccccc1OCC(=O)Nc1ccc(-c2nc3cc(C#N)ccc3o2)cc1`, the IC50 amounted to 0.057 µM in test [1] and 3.3 µM in test [2]. For the molecule `Cc1ccccc1OCC(=O)Nc1ccc(-c2nc3cc(-c4ccccc4)ccc3o2)cc1`, the IC50 in test [1] was determined as 1.9 µM. Regarding `Cc1ccccc1OCC(=O)Nc1ccc(-c2nc3cc(Cl)cc([N+](=O)[O-])c3o2)cc1`, the IC50 in test [1] was 0.049 µM; in test [2], 18 µM. For `Cc1cc(C)c2oc(-c3ccc(NC(=O)COc4ccc(C)c5c4CCC5)cc3)nc2c1`, in that order: 0.085 µM and 3.5 µM. For `Cc1cc(C)c2oc(-c3ccc(NC(=O)COc4ccccc4C(F)(F)F)cc3)nc2c1`, in that order: 1.9 µM and 91 µM. As to `Cc1cc(C)c2oc(-c3ccc(NC(=O)COc4ccc(F)cc4C)cc3)nc2c1`, the values for the IC50 in test [1] and in test [2] were 0.023 µM and 4.9 µM, respectively. For `Cc1cc(C)c2oc(-c3ccc(NC(=O)COc4ccccc4C)cc3)nc2c1`, the IC50 in test [1] came out at 0.28 µM; in test [2], 8.9 µM.

For the molecule `Cc1cc(C)c2oc(-c3ccc(NC(=O)COc4cccc(C(F)(F)F)c4)cc3)nc2c1`, the IC50 in test [1] was above 10 µM; in test [2], 32 µM. Molecule `Cc1ccccc1OCC(=O)Nc1ccc(-c2nc3cc(C(C)(C)C)ccc3o2)cc1` registered an IC50 in test [1] above 32 µM.

As to `Cc1cc(C)c2oc(-c3ccc(NC(=O)COc4cccc(OC(F)(F)F)c4)cc3)nc2c1`, the IC50 in test [1] came out at 3.6 µM; in test [2], 61 µM. `COc1ccc2nc(-c3ccc(NC(=O)COc4ccccc4C)cc3)oc2c1`: in test [1], the IC50 was above 32 µM. Molecule `Cc1ccccc1OCC(=O)Nc1ccc(-c2nc3c([N+](=O)[O-])cccc3o2)cc1` displayed an IC50 in test [1] above 32 µM. With `Cc1cccc(OCC(=O)Nc2ccc(-c3nc4cc(C)cc(C)c4o3)cc2)c1`, the results for the IC50 in test [1] and in test [2] were 0.69 µM and 18 µM, respectively. In the case of `Cc1c(Cl)ccc(OCC(=O)Nc2ccc(-c3nc4cc(C#N)ccc4o3)cc2)c1C`, the IC50 in test [1] came out at 0.01 µM; in test [2], 0.91 µM. In turn, `COC(=O)c1ccc2nc(-c3ccc(NC(=O)COc4ccccc4C)cc3)oc2c1` registered an IC50 in test [1] above 32 µM.

Take `Cc1cc(C)c2oc(-c3ccc(NC(=O)COc4ccccc4F)cc3)nc2c1`: in test [1], the IC50 was above 10 µM. As to `Cc1cc(C)c2oc(-c3ccc(NC(=O)COc4cccc(F)c4)cc3)nc2c1`, the IC50 in test [1] worked out at 1.1 µM; in test [2] it was 51 µM. The molecule `Cc1ccccc1OCC(=O)Nc1ccc(-c2nc3ccc(F)cc3o2)cc1` gave an IC50 in test [1] above 32 µM. Turning to `Cc1ccccc1OCC(=O)Nc1ccc(-c2nc3cc(C(F)(F)F)cc(C(F)(F)F)c3o2)cc1`, the IC50 in test [1] amounted to 0.092 µM; in test [2], 9.1 µM. For `COC(=O)c1c(Cl)ccc(OCC(=O)Nc2ccc(-c3nc4cc(C)cc(C)c4o3)cc2)c1C`, in that order: 0.042 µM and 2.8 µM.

In test [1], `Cc1cc(C)c2oc(-c3ccc(NC(=O)COc4c(C)cccc4Cl)cc3)nc2c1` showed an IC50 above 10 µM. The molecule `Cc1cc(C)c2oc(-c3ccc(NC(=O)COc4cccc(C#N)c4)cc3)nc2c1` yielded an IC50 in test [1] above 10 µM. As for `Cc1cc(C)c2oc(-c3ccc(NC(=O)COc4cccc(Cl)c4)cc3)nc2c1`, the values for the IC50 in test [1] and in test [2] were 1.3 µM and 11 µM, respectively. The matching figures for `Cc1ccccc1OCC(=O)Nc1ccc(-c2nc3cc(C(F)(F)F)ccc3o2)cc1`: 0.59 µM and 51 µM.

On to `Cc1cc(C)c2oc(-c3ccc(NC(=O)COc4ccc(-c5ccccc5)cc4)cc3)nc2c1`, for which the IC50 in test [1] was above 10 µM.

In test [1], `Cc1cc(C)c2oc(-c3ccc(NC(=O)COc4c(Cl)cccc4Cl)cc3)nc2c1` came in with an IC50 above 10 µM.

On to `Cc1cc(C)c2oc(-c3ccc(NC(=O)COc4cccc(-c5ccccc5)c4)cc3)nc2c1`, for which it took 2.3 µM to reach half-maximal inhibition in test [1] (IC50). `COc1ccccc1OCC(=O)Nc1ccc(-c2nc3cc(C)cc(C)c3o2)cc1`: inhibition in test [1] was half-maximal at 8.3 µM (IC50). Same read-out and setting: as for `Cc1cc(C)c2oc(-c3ccc(NC(=O)COc4ccccc4OC(F)(F)F)cc3)nc2c1`, the figure is 0.2 µM. As to `Cc1ccccc1OCC(=O)Nc1ccc(-c2nc3cc(C#N)cc(Cl)c3o2)cc1`, the IC50 in test [1] was found to be 0.052 µM; in test [2], 2.5 µM. On to `Cc1ccc2oc(-c3ccc(NC(=O)COc4ccccc4C)cc3)nc2c1`, for which the results for the IC50 in test [1] and in test [2] were 1.1 µM and 31 µM, respectively.

In turn, `Cc1cc(C)cc(OCC(=O)Nc2ccc(-c3nc4cc(C)cc(C)c4o3)cc2)c1` had an IC50 in test [1] above 10 µM. Take `Cc1ccccc1OCC(=O)Nc1ccc(-c2nc3ccc(Cl)cc3o2)cc1`: in test [1], the IC50 is above 32 µM. For the molecule `COC(=O)c1ccc2oc(-c3ccc(NC(=O)COc4ccccc4C)cc3)nc2c1`, in test [1], the IC50 is above 32 µM.

In test [1], `Cc1ccccc1OCC(=O)Nc1ccc(-c2nc3cc(F)ccc3o2)cc1` showed an IC50 above 32 µM. Turning to `COC(=O)c1c(Cl)ccc(OCC(=O)Nc2ccc(-c3nc4cc(C#N)ccc4o3)cc2)c1C`, the figures for the IC50 in test [1] and in test [2] were 0.018 µM and 1.3 µM, respectively. In turn, `COC(=O)c1cccc(OCC(=O)Nc2ccc(-c3nc4cc(C)cc(C)c4o3)cc2)c1` came in with an IC50 in test [1] above 10 µM. Turning to `Cc1cc(Cl)ccc1OCC(=O)Nc1ccc(-c2nc3cc(C#N)ccc3o2)cc1`, the IC50 was 0.085 µM in test [1] and 40 µM in test [2]. In test [1], `Cc1cc(C)c2oc(-c3ccc(NC(=O)COc4ccccc4-c4ccccc4)cc3)nc2c1` had an IC50 of 3.3 µM. Regarding `N#Cc1ccc2oc(-c3ccc(NC(=O)COc4ccc(Cl)c(C(F)(F)F)c4)cc3)nc2c1`, the IC50 in test [1] turned out to be 0.018 µM; in test [2], 4.3 µM.

Take `Cc1ccc(OCC(=O)Nc2ccc(-c3nc4cc(C)cc(C)c4o3)cc2)c(C)c1`: the values for the IC50 in test [1] and in test [2] were 0.14 µM and 4.5 µM, respectively. The matching figures for `Cc1cc(C)c2oc(-c3ccc(NC(=O)COc4ccc(Cl)cc4C)cc3)nc2c1`: 0.096 µM and 2.7 µM. The molecule `Cc1ccccc1OCC(=O)Nc1ccc(-c2nc3ccc([N+](=O)[O-])cc3o2)cc1` gave a half-inhibitory concentration (IC50) in test [1] above 32 µM.

Turning to `Cc1cc(C)c2oc(-c3ccc(NC(=O)COc4ccc(Cl)c(Cl)c4)cc3)nc2c1`, the IC50 amounted to 0.2 µM in test [1] and 13 µM in test [2]. In turn, `Cc1ccc2nc(-c3ccc(NC(=O)COc4ccccc4C)cc3)oc2c1` gave an IC50 in test [1] of 13 µM.

Regarding `Cc1ccccc1OCC(=O)Nc1ccc(-c2nc3cc(Br)ccc3o2)cc1`, the IC50 in test [1] was determined as 0.44 µM; in test [2] it was 28 µM. On to `Cc1ccccc1OCC(=O)Nc1ccc(-c2nc3ccc(N4CCCC4)cc3o2)cc1`, for which the IC50 in test [1] was above 32 µM. For `Cc1cc(C)c2oc(-c3ccc(NC(=O)COc4ccc(Cl)c5c4CCC5)cc3)nc2c1`, the IC50 came out at 0.056 µM in test [1] and 2.5 µM in test [2]. Consider `Cc1ccccc1OCC(=O)Nc1ccc(-c2nc3cc(OC(F)(F)F)ccc3o2)cc1`, for which the IC50 in test [1] came out at 11 µM; in test [2], 71 µM. Regarding `COC(=O)c1cccc2nc(-c3ccc(NC(=O)COc4ccccc4C)cc3)oc12`, the IC50 in test [1] is 3.5 µM; in test [2], 80 µM.

With `Cc1cc(C)c2oc(-c3ccc(NC(=O)COc4ccccc4C#N)cc3)nc2c1`, the IC50 in test [1] is above 10 µM.

For `Cc1ccc(OCC(=O)Nc2ccc(-c3nc4cc(C)cc(C)c4o3)cc2)cc1`, the IC50 is 0.24 µM in test [1] and 26 µM in test [2].

Molecule `Cc1cc(C)c2oc(-c3ccc(NC(=O)COc4ccc(C(F)(F)F)cc4)cc3)nc2c1` displayed an IC50 in test [1] above 10 µM. In the case of `Cc1cc(C)c2oc(-c3ccc(NC(=O)COc4ccc(Cl)c(C(F)(F)F)c4)cc3)nc2c1`, the IC50 in test [1] worked out at 0.12 µM; in test [2], 4.9 µM.

`Cc1ccccc1OCC(=O)Nc1ccc(-c2nc3cc(C(=O)O)ccc3o2)cc1` had an IC50 in test [1] above 32 µM. On the same count and under the same terms, the figure for `Cc1ccccc1OCC(=O)Nc1ccc(-c2nc3cccc(C(=O)O)c3o2)cc1` is above 32 µM; for `COc1ccc2oc(-c3ccc(NC(=O)COc4ccccc4C)cc3)nc2c1` it is above 32 µM; for `Cc1cc(C)c2oc(-c3ccc(NC(=O)COc4ccc(C#N)cc4)cc3)nc2c1` it is above 10 µM. On the same count and under the same terms, the figure for `Cc1cc(C)c2oc(-c3ccc(NC(=O)COc4ccccc4Cl)cc3)nc2c1` is above 10 µM.
